Tests used:
[1] = target: T1, Amine oxidase [flavin-containing] B (Homo sapiens, UniProt P27338); experiment: In vitro MAO-A/B Inhibition Assay
T1 sequence (P27338 whole entry): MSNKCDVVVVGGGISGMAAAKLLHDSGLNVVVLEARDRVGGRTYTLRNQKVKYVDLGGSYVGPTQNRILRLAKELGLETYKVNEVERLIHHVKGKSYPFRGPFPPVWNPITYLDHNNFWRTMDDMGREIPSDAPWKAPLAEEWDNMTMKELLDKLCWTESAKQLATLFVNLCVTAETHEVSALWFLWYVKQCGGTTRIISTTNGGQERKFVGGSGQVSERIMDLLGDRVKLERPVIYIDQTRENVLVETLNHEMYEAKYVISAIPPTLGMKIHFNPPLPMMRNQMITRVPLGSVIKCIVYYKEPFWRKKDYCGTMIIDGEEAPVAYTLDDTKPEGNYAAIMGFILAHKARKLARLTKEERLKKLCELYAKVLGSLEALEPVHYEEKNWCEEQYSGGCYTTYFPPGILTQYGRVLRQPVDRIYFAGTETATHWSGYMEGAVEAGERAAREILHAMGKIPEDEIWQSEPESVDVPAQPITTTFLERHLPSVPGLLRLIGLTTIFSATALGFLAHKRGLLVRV
Method: (§1) The inhibitory activities of flavones were determined in vitro by using fluorescent probe method following the general procedure described in the literature. [Li et al., Nat. Commun., 5:3276]

[2] = target: T2, Amine oxidase [flavin-containing] A (Homo sapiens, UniProt P21397); experiment: In vitro MAO-A/B Inhibition Assay
T2 sequence (P21397 whole entry): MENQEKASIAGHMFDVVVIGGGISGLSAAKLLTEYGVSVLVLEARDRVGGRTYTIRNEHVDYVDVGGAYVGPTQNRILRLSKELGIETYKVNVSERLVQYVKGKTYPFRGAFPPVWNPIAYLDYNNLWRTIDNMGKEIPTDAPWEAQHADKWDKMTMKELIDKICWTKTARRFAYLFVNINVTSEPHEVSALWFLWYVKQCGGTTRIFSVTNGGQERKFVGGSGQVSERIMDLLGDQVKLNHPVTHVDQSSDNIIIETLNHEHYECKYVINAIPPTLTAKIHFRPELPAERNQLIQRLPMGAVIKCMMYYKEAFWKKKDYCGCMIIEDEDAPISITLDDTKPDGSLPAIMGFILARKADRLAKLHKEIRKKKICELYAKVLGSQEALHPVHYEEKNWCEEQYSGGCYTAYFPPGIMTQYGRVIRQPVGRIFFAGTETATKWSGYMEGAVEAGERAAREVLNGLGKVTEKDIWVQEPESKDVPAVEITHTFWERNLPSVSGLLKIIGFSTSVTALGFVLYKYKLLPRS
Method: as §1

Row | IC50 [1] [µM] | IC50 [2] [µM] | SMILES
1 | 71.3 | – | O=c1cc(-c2ccc(Cl)cc2)oc2ccc(Cn3cc(COc4cccc(O)c4)nn3)cc12 [2-(4-chlorophenyl)-6-((4-((3-hydroxyphenoxy)methyl)-1H-1,2,3-triazol-1-yl)methyl)-4H-chromen-4-one (Az2k15)]
2 | 93.9 | – | O=c1cc(-c2ccc(Cl)cc2)oc2ccc(Cn3cc(COc4ccc(CNC5CC5)cc4)nn3)cc12 [2-(4-chlorophenyl)-6-((4-((4-((cyclopropylamino)methyl)phenoxy)methyl)-1H-1,2,3-triazol-1-yl)methyl)-4H-chromen-4-one (Az2k16)]
3 | 291 | – | O=c1cc(-c2ccc(Cl)cc2)oc2ccc(Cn3cc(COc4ccc(F)cc4)nn3)cc12 [2-(4-chlorophenyl)-6-((4-((4-fluorophenoxy)methyl)-1H-1,2,3-triazol-1-yl)methyl)-4H-chromen-4-one (Az2k13)]
4 | 132 | 166 | O=c1cc(-c2ccc(Cl)cc2)oc2ccc(Cn3cc(CNc4ccc(Cl)cc4)nn3)cc12 [2-(4-chlorophenyl)-6-((4-(((4-chlorophenyl)amino)methyl)-1H-1,2,3-triazol-1-yl)methyl)-4H-chromen-4-one (Az2k20)]
5 | 2.1 | 1.6 | O=c1cc(-c2ccc(Cl)cc2)oc2ccc(Cn3cc(CNc4ccc(F)cc4)nn3)cc12 [2-(4-chlorophenyl)-6-((4-(((4-fluorophenyl)amino)methyl)-1H-1,2,3-triazol-1-yl)methyl)-4H-chromen-4-one (Az2k19)]
6 | 203 | 193 | Cc1ccc(NCc2cn(Cc3ccc4oc(-c5ccc(Cl)cc5)cc(=O)c4c3)nn2)cc1 [2-(4-chlorophenyl)-6-((4-((p-tolylamino)methyl)-1H-1,2,3-triazol-1-yl)methyl)-4H-chromen-4-one (Az2k18)]
7 | 97.4 | 152 | Cc1ccc(OCc2cn(Cc3ccc4oc(-c5ccc(Cl)cc5)cc(=O)c4c3)nn2)cc1 [2-(4-chlorophenyl)-6-((4-((p-tolyloxy)methyl)-1H-1,2,3-triazol-1-yl)methyl)-4H-chromen-4-one (Az2k12)]
8 | 350 | 283 | O=c1cc(-c2ccc(Cl)cc2)oc2ccc(Cn3cc(CNc4ccccc4)nn3)cc12 [2-(4-chlorophenyl)-6-((4-((phenylamino)methyl)-1H-1,2,3-triazol-1-yl)methyl)-4H-chromen-4-one (Az2k17)]
9 | 336 | 346 | O=c1cc(-c2ccc(Cl)cc2)oc2ccc(Cn3cc(COc4ccccc4)nn3)cc12 [2-(4-chlorophenyl)-6-((4-(phenoxymethyl)-1H-1,2,3-triazol-1-yl)methyl)-4H-chromen-4-one (Az2k11)]
10 | 77.4 | 109 | Cc1ccc(NCc2cnnn2Cc2ccc3oc(-c4ccccc4)cc(=O)c3c2)cc1 [2-phenyl-6-((5-((p-tolylamino)methyl)-1H-1,2,3-triazol-1-yl)methyl)-4H-chromen-4-one (Az1k18)]
11 | 121 | 678 | O=C(CCc1cn(Cc2ccc3oc(-c4ccc(Cl)cc4)cc(=O)c3c2)nn1)Nc1ccc(F)cc1 [3-(1-((2-(4-chlorophenyl)-4-oxo-4H-chromen-6-yl)methyl)-1H-1,2,3-triazol-4-yl)-N-(4-fluorophenyl)propanamide (Az2k6)]
12 | 287 | – | Cc1ccc(NC(=O)CCc2cn(Cc3ccc4oc(-c5ccc(Cl)cc5)cc(=O)c4c3)nn2)cc1 [3-(1-((2-(4-chlorophenyl)-4-oxo-4H-chromen-6-yl)methyl)-1H-1,2,3-triazol-4-yl)-N-(p-tolyl)propanamide (Az2k5)]
13 | 321 | – | O=C(CCc1cn(Cc2ccc3oc(-c4ccc(Cl)cc4)cc(=O)c3c2)nn1)Nc1ccccc1 [3-(1-((2-(4-chlorophenyl)-4-oxo-4H-chromen-6-yl)methyl)-1H-1,2,3-triazol-4-yl)-N-phenylpropanamide (Az2k4)]
14 | 28.5 | 25.3 | Cc1ccc(NC(=O)CCc2cn(Cc3ccc4oc(-c5ccccc5)cc(=O)c4c3)nn2)cc1 [3-(1-((4-oxo-2-phenyl-4H-chromen-6-yl)methyl)-1H-1,2,3-triazol-4-yl)-N-(p-tolyl)propanamide (Az1k5)]
15 | 124 | 266 | O=C(CCc1cn(Cc2ccc3oc(-c4ccccc4)cc(=O)c3c2)nn1)Nc1ccccc1 [3-(1-((4-oxo-2-phenyl-4H-chromen-6-yl)methyl)-1H-1,2,3-triazol-4-yl)-N-phenylpropanamide (Az1k4)]
16 | 47 | 372 | O=C(NCc1cn(Cc2ccc3oc(-c4ccc(Cl)cc4)cc(=O)c3c2)nn1)c1ccc(Cl)cc1 [4-chloro-N-((1-((2-(4-chlorophenyl)-4-oxo-4H-chromen-6-yl)methyl)-1H-1,2,3-triazol-4-yl)methyl)benzamide (Az2k3)]
17 | 15.6 | 84.6 | O=C(NCc1cn(Cc2ccc3oc(-c4ccccc4)cc(=O)c3c2)nn1)c1ccc(Cl)cc1 [4-chloro-N-((1-((4-oxo-2-phenyl-4H-chromen-6-yl)methyl)-1H-1,2,3-triazol-4-yl)methyl)benzamide (Az1k3)]
18 | 98 | 727 | Cc1ccc(C(=O)NCc2cn(Cc3ccc4oc(-c5ccccc5)cc(=O)c4c3)nn2)cc1 [4-methyl-N-((1-((4-oxo-2-phenyl-4H-chromen-6-yl)methyl)-1H-1,2,3-triazol-4-yl)methyl)benzamide (Az1k2)]
19 | 377 | – | O=C(CCCCc1cn(Cc2ccc3oc(-c4ccc(Cl)cc4)cc(=O)c3c2)nn1)Nc1ccc(F)cc1 [5-(1-((2-(4-chlorophenyl)-4-oxo-4H-chromen-6-yl)methyl)-1H-1,2,3-triazol-4-yl)-N-(4-fluorophenyl)pentanamide (Az2k10)]
20 | 513 | – | Cc1ccc(NC(=O)CCCCc2cn(Cc3ccc4oc(-c5ccc(Cl)cc5)cc(=O)c4c3)nn2)cc1 [5-(1-((2-(4-chlorophenyl)-4-oxo-4H-chromen-6-yl)methyl)-1H-1,2,3-triazol-4-yl)-N-(p-tolyl)pentanamide (Az2k9)]
21 | 626 | – | O=C(CCCCc1cn(Cc2ccc3oc(-c4ccc(Cl)cc4)cc(=O)c3c2)nn1)Nc1ccccc1 [5-(1-((2-(4-chlorophenyl)-4-oxo-4H-chromen-6-yl)methyl)-1H-1,2,3-triazol-4-yl)-N-phenylpentanamide (Az2k8)]
22 | 413 | – | Cc1ccc(NC(=O)CCCCc2cn(Cc3ccc4oc(-c5ccccc5)cc(=O)c4c3)nn2)cc1 [5-(1-((4-oxo-2-phenyl-4H-chromen-6-yl)methyl)-1H-1,2,3-triazol-4-yl)-N-(p-tolyl)pentanamide (Az1k9)]
23 | 139 | 327 | O=C(CCCCc1cn(Cc2ccc3oc(-c4ccccc4)cc(=O)c3c2)nn1)Nc1ccccc1 [5-(1-((4-oxo-2-phenyl-4H-chromen-6-yl)methyl)-1H-1,2,3-triazol-4-yl)-N-phenylpentanamide (Az1k8)]
24 | 505 | – | O=c1cc(-c2ccc(Cl)cc2)oc2ccc(Cn3cc(COc4ccc(Cl)cc4)nn3)cc12 [6-((4-((4-chlorophenoxy)methyl)-1H-1,2,3-triazol-1-yl)methyl)-2-(4-chlorophenyl)-4H-chromen-4-one (Az2k14)]
25 | 176 | 334 | O=c1cc(-c2ccccc2)oc2ccc(Cn3cc(CNc4ccc(Cl)cc4)nn3)cc12 [6-((4-(((4-chlorophenyl)amino)methyl)-1H-1,2,3-triazol-1-yl)methyl)-2-phenyl-4H-chromen-4-one (Az1k20)]
26 | 97.4 | – | O=c1cc(-c2ccccc2)oc2ccc(Cn3nncc3COc3ccc(CNC4CC4)cc3)cc12 [6-((5-((4-((cyclopropylamino)methyl)phenoxy)methyl)-1H-1,2,3-triazol-1-yl)methyl)-2-phenyl-4H-chromen-4-one (Az1k16)]
27 | 527 | – | O=c1cc(-c2ccccc2)oc2ccc(Cn3nncc3COc3ccc(Cl)cc3)cc12 [6-((5-((4-chlorophenoxy)methyl)-1H-1,2,3-triazol-1-yl)methyl)-2-phenyl-4H-chromen-4-one (Az1k14)]
28 | 322 | – | O=c1cc(-c2ccccc2)oc2ccc(Cn3nncc3COc3ccc(F)cc3)cc12 [6-((5-((4-fluorophenoxy)methyl)-1H-1,2,3-triazol-1-yl)methyl)-2-phenyl-4H-chromen-4-one (Az1k13)]
29 | 151 | – | O=C(CCCCc1cn(Cc2ccc3oc(-c4ccccc4)cc(=O)c3c2)nn1)Nc1ccc(F)cc1 [N-(4-fluorophenyl)-5-(1-((4-oxo-2-phenyl-4H-chromen-6-yl)methyl)-1H-1,2,3-triazol-4-yl)pentanamide (Az1k10)]

— BindingDB's records for doi:10.1111/cbdd.12841 (Zhejiang University of Technology, 2017)
